Values of other authors, collected in patent US20260216230A1, “SERRATIA ANTICANCER POLYSACCHARIDE COMPOSITIONS AND METHODS” (Board of Supervisors of Louisiana State University and …, priority 2023, published 2026).

Test system: refractory Stage 4 patients
Conditions: phase I

## CC(=O)O[C@H]1C(=O)[C@@]2(C)[C@H]([C@H](OC(=O)c3ccccc3)[C@]3(O)C[C@H](OC(=O)[C@H](O)[C@@H](NC(=O)c4ccccc4)c4ccccc4)C(C)=C1C3(C)C)[C@]1(OC(C)=O)CO[C@@H]1C[C@@H]2O [Taxol]
  effectivity: 12%
